Consider 10 compounds from patent publication US9440982B2 (Eolas Therapeutics, Inc., priority 2012, dated 2016).

In one data set the target is T1, OX1 (Homo sapiens, UniProt O43613).
T1 construct: expressed in transfected cells; host or cells: CHO (CHO-OX1, kept under selection antibiotic)
T1 sequence (O43613 1-425): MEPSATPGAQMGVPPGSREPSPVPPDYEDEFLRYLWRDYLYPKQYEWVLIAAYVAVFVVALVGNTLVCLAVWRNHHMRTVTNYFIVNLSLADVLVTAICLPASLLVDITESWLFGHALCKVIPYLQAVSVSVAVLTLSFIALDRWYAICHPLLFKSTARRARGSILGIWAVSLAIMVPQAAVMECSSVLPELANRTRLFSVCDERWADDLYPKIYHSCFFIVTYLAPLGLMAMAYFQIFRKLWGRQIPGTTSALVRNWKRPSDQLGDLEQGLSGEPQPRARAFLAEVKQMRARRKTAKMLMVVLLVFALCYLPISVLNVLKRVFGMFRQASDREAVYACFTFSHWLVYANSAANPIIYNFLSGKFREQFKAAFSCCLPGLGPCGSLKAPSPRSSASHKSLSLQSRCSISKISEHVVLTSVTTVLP
Briefly: Orexin receptor cell-based functional assay, [Ca2+]i by FLIPR, CHO-OX1 cells. The following applies: CHO-OX1 cells, [Ca2+]i by FLIPR, antagonist dose-range 0.1 nM-10 μM, EC90 of OXA; read-out: OX1. The gist of the method: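 CHO cells expressing human OX1 or OX2 loaded with calcium dye plus 2.5 mM probenecid at 37° C (calcium4, 30 min, or calcium6, 2 h), then exposed to compounds (0.1 nM-10 μM) for 30 min. Intracellular Ca2+ measured on FLIPR; antagonist format.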

Another data set has as its target T2, CYP3A4 (Homo sapiens, UniProt P08684).
T2 construct: pre-incubated with human liver microsomes and NADPH; from tissue; host or cells: human liver microsomes
Briefly: Cytochrome P450 inhibition assay (midazolam hydroxylation). It is filed as in vitro ADME. The following applies: human, human liver microsomes, probe midazolam (hydroxylation to 1′-hydroxymidazolam), 10 μM test compound, midazolam at approximately its Km. The gist of the method: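 Human liver microsomes; CYP3A4 activity as midazolam 1′-hydroxylation with substrate near Km, with or without 10 μM test compound, read as percent inhibition. For time-dependent inhibition, parallel samples were preincubated 30 min with NADPH before substrate, and percent inhibition compared with non-preincubated samples.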
On the technique in general: Microsomes from liver hold many membrane-bound enzymes, among them those of drug oxidation.

T2 sequence (P08684 whole entry): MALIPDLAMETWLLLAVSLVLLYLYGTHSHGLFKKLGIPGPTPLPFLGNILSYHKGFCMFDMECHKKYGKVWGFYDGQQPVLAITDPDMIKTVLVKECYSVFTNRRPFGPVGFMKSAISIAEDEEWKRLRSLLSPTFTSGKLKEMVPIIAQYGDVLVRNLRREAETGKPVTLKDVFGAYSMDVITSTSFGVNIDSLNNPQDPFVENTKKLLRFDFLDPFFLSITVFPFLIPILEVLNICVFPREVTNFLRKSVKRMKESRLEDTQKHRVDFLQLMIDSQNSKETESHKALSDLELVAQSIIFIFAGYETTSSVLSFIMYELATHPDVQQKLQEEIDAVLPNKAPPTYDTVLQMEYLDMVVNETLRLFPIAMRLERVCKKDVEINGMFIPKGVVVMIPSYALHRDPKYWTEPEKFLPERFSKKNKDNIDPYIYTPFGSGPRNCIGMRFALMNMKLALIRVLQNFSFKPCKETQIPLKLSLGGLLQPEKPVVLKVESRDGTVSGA

As to `C[C@@H]1CCCN(C(=O)c2c(F)cccc2-n2nccn2)[C@@H]1CNc1ccc(Cl)cn1` [Example A261, ((2S,3R)-2-(((5-Chloropyridin-2-yl)amino)methyl)-3-methylpiperidin-1-yl)(2-fluoro-6-(2H-1,2,3-triazol-2-yl)phenyl)methanone], on OX1, the IC50 was 5 nM. This compound also yielded an inhibition at 10 µM against CYP3A4 of 77%.
In the case of `Cc1ccc(-n2ncnc2C)c(C(=O)N2CCC[C@@H](C)[C@H]2CNc2ccc(C(F)(F)F)cn2)c1` [Example A16, ((2S,3R)-3-Methyl-2-(((5-(trifluoromethyl)pyridin-2-yl)amino)methyl)piperidin-1-yl)(5-methyl-2-(5-methyl-1H-1,2,4-triazol-1-yl)phenyl)methanone], at OX1, the IC50 is 260 nM. At CYP3A4, this compound showed an inhibition at 10 µM of 96%.
The like results for `C[C@@H]1CCCN(C(=O)c2ccccc2-n2nccn2)[C@@H]1CNc1ncc(C(F)(F)F)cn1` [Example A313, (2-(2H-1,2,3-Triazol-2-yl)phenyl)((2S,3R)-3-methyl-2-(((5-(trifluoromethyl)pyrimidin-2-yl)amino)methyl)piperidin-1-yl)methanone] were, in that order, 5 nM and 60%.
As for `C[C@@H]1CCCN(C(=O)c2ccccc2-c2ncccn2)[C@@H]1CNc1ncc(C(F)(F)F)cn1` [Example A317, ((2S,3R)-3-Methyl-2-(((5-(trifluoromethyl)pyrimidin-2-yl)amino)methyl)piperidin-1-yl)(2-(pyrimidin-2-yl)phenyl)methanone], at OX1, the IC50 amounted to 1 nM. The compound further yielded an inhibition at 10 µM at CYP3A4 of 46%.
For `C[C@@H]1CCCN(C(=O)c2cccc(F)c2-n2nccn2)[C@@H]1CNc1ccc(C(F)(F)F)cn1` [Example A257, (3-Fluoro-2-(2H-1,2,3-triazol-2-yl)phenyl)((2S,3R)-3-methyl-2-(((5-(trifluoromethyl)pyridin-2-yl)amino)methyl)piperidin-1-yl)methanone] the same measures were 4 nM and 69%.
With `Cc1ccc(-c2ncccn2)c(C(=O)N2CCC[C@@H](C)[C@H]2CNc2nc3cc(F)ccc3o2)c1` [Example A206, ((2S,3R)-2-(((5-Fluorobenzo[d]oxazol-2-yl)amino)methyl)-3-methylpiperidin-1-yl)(5-methyl-2-(pyrimidin-2-yl)phenyl)methanone], at OX1, the IC50 was 6 nM. On CYP3A4, 10 µM produced 58% inhibition.
For `C[C@@H]1CCCN(C(=O)c2cc(F)c(F)cc2-n2nccn2)[C@@H]1CNc1ncc(C(F)(F)F)cn1` [Example A248, (4,5-Difluoro-2-(2H-1,2,3-triazol-2-yl)phenyl)((2S,3R)-3-methyl-2-(((5-(trifluoromethyl)pyrimidin-2-yl)amino)methyl)piperidin-1-yl)methanone] the same measures were 20 nM and 67%.
For `C[C@@H]1CCCN(C(=O)c2cccc(F)c2-c2ncccn2)[C@@H]1CNc1ncc(Cl)cn1` [Example A231, (3-Fluoro-2-(pyrimidin-2-yl)phenyl)((2S,3R)-3-methyl-2-(((5-chloropyrimidin-2-yl)amino)methyl)piperidin-1-yl)methanone] the same measures were 17 nM and 54%.
For `C[C@@H]1CCCN(C(=O)c2ccccc2-n2nccn2)[C@@H]1CNc1nc2cc(Cl)ccc2o1` [Example A219, (2-(2H-1,2,3-Triazol-2-yl)phenyl)((2S,3R)-2-(((5-chlorobenzo[d]oxazol-2-yl)amino)methyl)-3-methylpiperidin-1-yl)methanone] the same measures were 2600 nM and 84%.
In the case of `Cc1ccc(-n2ncc(C)n2)c(C(=O)N2CCC[C@@H](C)[C@H]2CNc2ccc(C(F)(F)F)cn2)c1` [Example A112, ((2S,3R)-3-Methyl-2-(((5-(trifluoromethyl)pyridin-2-yl)amino)methyl)piperidin-1-yl)(5-methyl-2-(4-methyl-2H-1,2,3-triazol-2-yl)phenyl)methanone], the IC50 at OX1 worked out at 2 nM. Also, on CYP3A4, the inhibition at 10 µM came to 84%.

As usually defined, the inhibition is the percentage by which the read-out fell short of the control. Read a low inhibition as little suppression.
